Experimental findings from ChEMBL document CHEMBL5465560, “Selectivity Literature for EUbOPEN Chemogenomic Library” (2024) are described below.

Assay [1] concerns the target T1, Serine/threonine-protein kinase TAO1 (Homo sapiens) (UniProt Q7L7X3).
T1 sequence (whole entry): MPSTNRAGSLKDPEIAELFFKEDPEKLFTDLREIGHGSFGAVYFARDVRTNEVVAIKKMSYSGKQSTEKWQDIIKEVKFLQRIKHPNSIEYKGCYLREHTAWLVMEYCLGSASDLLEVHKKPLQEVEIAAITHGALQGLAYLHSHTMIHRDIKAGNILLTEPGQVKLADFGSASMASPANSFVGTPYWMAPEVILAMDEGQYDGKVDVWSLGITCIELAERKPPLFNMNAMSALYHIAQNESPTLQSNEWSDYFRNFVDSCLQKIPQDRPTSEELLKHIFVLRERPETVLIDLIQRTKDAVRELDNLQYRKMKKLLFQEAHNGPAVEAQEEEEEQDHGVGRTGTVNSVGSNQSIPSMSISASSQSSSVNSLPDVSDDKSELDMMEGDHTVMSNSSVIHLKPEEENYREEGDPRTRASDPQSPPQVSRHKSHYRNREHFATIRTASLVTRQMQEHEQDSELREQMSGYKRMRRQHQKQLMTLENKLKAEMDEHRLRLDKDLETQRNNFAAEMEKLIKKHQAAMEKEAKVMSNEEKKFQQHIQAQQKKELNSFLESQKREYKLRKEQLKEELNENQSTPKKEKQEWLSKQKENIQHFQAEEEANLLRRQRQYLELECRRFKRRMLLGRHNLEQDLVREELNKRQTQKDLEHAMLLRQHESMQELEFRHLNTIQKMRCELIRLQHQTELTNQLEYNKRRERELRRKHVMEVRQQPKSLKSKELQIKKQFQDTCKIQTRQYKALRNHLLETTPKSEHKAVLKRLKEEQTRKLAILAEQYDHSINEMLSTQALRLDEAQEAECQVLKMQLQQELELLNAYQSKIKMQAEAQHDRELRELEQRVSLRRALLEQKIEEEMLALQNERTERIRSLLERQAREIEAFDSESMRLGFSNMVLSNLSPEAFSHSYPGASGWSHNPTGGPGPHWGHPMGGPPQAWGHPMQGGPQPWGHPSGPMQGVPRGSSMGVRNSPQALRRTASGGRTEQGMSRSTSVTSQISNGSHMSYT
As to the kind of experiment: Selectivity interaction (KinomeScan (DiscoverX)) EUB0000666a TAOK1. The settings on record: at 10 µM.

The target of assay [2] is T2, Mitogen-activated protein kinase kinase kinase 15 (Homo sapiens) (UniProt Q6ZN16).
T2 sequence (whole entry): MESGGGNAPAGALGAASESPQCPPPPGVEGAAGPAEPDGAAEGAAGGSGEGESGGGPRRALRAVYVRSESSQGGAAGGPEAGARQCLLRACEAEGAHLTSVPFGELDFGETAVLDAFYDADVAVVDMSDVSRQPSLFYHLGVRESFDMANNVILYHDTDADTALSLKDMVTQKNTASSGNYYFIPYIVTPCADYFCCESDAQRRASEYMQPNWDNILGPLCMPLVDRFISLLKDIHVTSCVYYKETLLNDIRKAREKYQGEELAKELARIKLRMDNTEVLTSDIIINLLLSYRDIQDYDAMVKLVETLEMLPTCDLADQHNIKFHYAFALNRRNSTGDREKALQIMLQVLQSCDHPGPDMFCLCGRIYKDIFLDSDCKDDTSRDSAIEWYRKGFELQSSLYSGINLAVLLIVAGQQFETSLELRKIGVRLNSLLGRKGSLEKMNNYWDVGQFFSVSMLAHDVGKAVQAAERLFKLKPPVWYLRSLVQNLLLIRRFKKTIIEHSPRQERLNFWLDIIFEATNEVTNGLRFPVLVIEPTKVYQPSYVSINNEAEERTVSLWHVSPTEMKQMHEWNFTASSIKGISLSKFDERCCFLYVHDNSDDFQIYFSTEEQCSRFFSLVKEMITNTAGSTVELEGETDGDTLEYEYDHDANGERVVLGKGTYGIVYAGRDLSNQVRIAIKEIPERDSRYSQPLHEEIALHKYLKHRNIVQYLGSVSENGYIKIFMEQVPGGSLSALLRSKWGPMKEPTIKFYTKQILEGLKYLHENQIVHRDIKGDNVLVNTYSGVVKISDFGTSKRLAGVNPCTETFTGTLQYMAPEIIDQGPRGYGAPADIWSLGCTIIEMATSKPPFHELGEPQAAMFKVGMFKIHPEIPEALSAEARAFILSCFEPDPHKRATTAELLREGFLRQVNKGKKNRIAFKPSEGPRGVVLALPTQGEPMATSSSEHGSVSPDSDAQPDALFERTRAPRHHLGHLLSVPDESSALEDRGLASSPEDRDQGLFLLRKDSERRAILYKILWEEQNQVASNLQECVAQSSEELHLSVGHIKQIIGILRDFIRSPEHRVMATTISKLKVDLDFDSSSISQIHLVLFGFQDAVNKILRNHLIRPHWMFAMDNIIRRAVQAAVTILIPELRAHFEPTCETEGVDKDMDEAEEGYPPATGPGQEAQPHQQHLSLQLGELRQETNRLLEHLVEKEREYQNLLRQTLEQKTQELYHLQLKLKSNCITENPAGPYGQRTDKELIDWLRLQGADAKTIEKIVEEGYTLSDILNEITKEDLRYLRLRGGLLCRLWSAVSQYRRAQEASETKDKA
Description: Selectivity interaction (KinomeScan (DiscoverX)) EUB0001049a MAP3K15. The settings on record: at 1 µM.

Assay [3] addresses Serine/threonine-protein kinase 26 (Homo sapiens, UniProt Q9P289). As to the kind of experiment: Selectivity interaction (KinomeScan (DiscoverX)) EUB0000655a STK26. The conditions noted are these: at 10 µM.
In assay [4] the target is Transcription initiation factor TFIID subunit 1 (Homo sapiens) (UniProt P21675). Description: Selectivity interaction (Bromodomain panel (DSF asssay)) EUB0000270b TAF1.
The target in assay [5] is Microtubule-associated serine/threonine-protein kinase 1 (Homo sapiens) (UniProt Q9Y2H9). Description: Selectivity interaction (KinomeScan (DiscoverX)) EUB0000618a MAST1. The conditions noted are these: at 10 µM.
For assay [6], the target named is T3, Dual specificity mitogen-activated protein kinase kinase 3 (Homo sapiens) (UniProt P46734).
T3 sequence (whole entry): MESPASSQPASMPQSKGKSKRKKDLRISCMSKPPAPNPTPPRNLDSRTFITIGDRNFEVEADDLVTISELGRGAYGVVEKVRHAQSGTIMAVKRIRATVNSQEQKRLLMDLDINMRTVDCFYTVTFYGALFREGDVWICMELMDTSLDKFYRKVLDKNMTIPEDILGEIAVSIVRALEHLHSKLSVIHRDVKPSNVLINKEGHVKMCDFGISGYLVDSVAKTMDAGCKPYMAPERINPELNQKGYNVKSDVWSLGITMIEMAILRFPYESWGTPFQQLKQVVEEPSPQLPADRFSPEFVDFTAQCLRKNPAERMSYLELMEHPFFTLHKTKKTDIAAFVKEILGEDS
Description: Selectivity interaction (KinomeScan (DiscoverX)) EUB0000092b MAP2K3. The conditions noted are these: at 10 µM.

For a further assay, the target named is Aurora kinase B (Homo sapiens, UniProt Q96GD4). Description: Selectivity interaction (Panel of kinases, GPCRs, ion channels and transporters (enzymatic assay)) EUB0000266bCl AURKB.
Chain of Aurora kinase B (Q96GD4 whole entry): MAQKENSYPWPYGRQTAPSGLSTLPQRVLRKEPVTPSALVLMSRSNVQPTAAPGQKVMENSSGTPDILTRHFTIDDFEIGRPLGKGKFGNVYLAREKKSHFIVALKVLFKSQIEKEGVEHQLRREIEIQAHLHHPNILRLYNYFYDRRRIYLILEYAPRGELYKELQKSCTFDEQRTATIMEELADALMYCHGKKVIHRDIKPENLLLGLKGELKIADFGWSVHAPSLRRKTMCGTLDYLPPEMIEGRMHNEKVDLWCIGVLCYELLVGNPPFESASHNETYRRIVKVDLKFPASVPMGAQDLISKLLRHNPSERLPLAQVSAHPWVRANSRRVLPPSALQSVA

Chain of Microtubule-associated serine/threonine-protein kinase 1 (Homo sapiens) (Q9Y2H9 whole entry, looked up): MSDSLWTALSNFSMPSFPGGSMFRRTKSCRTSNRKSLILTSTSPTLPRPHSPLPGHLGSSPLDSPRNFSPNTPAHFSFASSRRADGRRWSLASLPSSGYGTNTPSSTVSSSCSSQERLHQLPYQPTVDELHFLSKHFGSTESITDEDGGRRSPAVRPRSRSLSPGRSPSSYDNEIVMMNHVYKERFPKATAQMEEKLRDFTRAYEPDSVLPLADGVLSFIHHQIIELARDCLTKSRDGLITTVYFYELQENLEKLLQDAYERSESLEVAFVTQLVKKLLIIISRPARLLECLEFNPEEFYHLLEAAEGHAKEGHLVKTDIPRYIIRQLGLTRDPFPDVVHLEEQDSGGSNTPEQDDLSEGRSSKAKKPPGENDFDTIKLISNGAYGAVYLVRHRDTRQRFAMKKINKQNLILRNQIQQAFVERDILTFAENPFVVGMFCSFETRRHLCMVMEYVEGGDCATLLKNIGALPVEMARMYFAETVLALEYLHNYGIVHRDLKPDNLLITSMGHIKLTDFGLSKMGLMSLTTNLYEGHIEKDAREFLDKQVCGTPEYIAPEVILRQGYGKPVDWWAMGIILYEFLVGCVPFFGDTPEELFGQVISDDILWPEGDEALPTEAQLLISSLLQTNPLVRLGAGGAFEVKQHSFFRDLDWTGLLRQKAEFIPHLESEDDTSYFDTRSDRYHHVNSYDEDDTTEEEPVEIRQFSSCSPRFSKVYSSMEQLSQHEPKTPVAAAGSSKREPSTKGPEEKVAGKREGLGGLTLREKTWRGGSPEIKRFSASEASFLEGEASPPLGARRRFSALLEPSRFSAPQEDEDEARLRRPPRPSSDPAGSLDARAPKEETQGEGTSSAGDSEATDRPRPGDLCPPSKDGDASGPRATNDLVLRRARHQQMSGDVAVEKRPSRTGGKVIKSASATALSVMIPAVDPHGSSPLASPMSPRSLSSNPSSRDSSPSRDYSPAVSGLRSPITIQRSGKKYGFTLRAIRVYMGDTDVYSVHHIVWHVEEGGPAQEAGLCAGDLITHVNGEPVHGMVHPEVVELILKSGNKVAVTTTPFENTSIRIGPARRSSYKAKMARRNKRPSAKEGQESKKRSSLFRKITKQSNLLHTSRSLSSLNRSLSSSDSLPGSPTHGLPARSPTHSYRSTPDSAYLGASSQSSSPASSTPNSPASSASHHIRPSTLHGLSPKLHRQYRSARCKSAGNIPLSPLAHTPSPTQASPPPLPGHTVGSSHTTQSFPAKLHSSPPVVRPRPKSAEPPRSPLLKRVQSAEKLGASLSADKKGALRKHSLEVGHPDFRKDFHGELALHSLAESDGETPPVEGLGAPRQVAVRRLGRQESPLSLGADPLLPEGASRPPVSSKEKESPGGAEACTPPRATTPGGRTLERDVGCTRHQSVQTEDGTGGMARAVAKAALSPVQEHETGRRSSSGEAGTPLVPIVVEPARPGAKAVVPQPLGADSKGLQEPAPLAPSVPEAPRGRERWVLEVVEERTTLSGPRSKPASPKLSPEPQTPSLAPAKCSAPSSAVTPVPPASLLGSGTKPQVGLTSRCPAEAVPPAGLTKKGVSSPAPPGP
Chain of Transcription initiation factor TFIID subunit 1 (Homo sapiens) (P21675 whole entry): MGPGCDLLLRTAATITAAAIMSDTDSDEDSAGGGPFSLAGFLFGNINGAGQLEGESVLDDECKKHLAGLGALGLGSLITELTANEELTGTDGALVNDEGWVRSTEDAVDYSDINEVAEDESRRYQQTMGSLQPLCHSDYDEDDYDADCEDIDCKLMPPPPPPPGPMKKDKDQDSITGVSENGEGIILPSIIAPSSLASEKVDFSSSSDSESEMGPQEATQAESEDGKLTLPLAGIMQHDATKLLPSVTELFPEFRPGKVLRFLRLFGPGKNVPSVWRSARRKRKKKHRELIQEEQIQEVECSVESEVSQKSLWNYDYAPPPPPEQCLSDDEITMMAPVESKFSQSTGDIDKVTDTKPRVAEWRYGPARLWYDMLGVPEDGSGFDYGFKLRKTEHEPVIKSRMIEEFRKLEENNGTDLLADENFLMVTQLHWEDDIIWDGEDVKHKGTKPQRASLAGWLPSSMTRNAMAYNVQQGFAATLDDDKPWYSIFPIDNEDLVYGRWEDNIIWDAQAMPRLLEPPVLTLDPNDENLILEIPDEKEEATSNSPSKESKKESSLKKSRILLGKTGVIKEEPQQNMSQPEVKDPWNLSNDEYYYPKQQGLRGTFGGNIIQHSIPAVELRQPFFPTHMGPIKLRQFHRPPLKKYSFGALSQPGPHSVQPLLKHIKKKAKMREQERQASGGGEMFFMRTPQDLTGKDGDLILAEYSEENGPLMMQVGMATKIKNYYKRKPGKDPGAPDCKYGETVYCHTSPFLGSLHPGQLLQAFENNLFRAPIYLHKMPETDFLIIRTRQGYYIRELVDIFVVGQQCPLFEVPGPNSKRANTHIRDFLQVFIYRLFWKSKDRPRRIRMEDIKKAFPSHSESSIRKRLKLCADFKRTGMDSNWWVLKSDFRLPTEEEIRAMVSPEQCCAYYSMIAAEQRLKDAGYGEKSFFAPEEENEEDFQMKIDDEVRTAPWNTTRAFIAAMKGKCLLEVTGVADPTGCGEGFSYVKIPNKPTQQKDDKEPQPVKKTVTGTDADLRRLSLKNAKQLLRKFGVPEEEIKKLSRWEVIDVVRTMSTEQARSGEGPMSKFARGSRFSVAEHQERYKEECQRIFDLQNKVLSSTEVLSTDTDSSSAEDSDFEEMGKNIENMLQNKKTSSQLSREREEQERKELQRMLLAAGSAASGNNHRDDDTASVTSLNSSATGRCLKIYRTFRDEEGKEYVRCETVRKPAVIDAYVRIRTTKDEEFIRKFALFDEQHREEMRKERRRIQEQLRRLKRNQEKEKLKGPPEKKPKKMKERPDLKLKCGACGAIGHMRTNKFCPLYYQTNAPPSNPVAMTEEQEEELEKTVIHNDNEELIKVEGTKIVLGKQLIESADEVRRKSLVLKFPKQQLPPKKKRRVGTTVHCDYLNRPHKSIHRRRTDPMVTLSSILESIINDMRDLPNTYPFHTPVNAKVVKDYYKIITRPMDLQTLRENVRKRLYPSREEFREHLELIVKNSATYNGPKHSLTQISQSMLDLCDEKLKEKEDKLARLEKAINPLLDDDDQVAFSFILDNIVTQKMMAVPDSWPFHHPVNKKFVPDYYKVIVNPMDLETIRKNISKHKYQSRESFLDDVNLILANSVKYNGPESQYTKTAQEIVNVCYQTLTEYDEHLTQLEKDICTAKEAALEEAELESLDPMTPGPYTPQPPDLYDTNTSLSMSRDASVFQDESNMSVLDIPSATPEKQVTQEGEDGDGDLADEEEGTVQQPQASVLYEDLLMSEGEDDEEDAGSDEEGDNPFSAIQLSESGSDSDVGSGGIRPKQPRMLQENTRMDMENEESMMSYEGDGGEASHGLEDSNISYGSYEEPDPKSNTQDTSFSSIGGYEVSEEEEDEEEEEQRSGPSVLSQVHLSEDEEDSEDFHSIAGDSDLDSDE
Chain of Serine/threonine-protein kinase 26 (Q9P289 2-416 limits assumed): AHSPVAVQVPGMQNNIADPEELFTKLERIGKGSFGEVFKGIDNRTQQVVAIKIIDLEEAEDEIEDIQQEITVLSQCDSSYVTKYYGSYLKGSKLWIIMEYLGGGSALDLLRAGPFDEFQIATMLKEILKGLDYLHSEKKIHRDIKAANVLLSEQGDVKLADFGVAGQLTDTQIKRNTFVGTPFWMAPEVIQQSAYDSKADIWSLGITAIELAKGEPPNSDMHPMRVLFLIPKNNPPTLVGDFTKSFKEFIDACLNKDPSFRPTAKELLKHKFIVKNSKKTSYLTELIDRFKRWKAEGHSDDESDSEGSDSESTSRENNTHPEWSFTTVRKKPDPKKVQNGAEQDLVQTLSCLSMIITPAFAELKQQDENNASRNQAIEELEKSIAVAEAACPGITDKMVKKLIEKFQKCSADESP

In turn, `O=C(NOC[C@H](O)CO)c1ccc(F)c(F)c1Nc1ccc(I)cc1F` yielded a % of control in assay [1] of 100%.
As for `COc1cc(Nc2nc(C)cc(-c3cnn4nc(OC)ccc34)n2)cc(C(F)(F)F)c1`, the % of control in assay [2] was 100%.
In assay [3], `CN(C)CCOc1ccc(-c2nc(-c3ccncc3)c(-c3ccc4c(c3)CC/C4=N\O)[nH]2)cc1` showed a % of control of 91%.
As for `Cc1cc(CN)cc(C)c1-c1ncn(C)c1-c1cncn1C`, the dTM in assay [4] was -1.17 K.
`O[C@H]1CC[C@H](Nc2ncc3nc(Nc4c(F)cc(F)cc4F)n([C@H]4CCOC4)c3n2)CC1` had a % of control in assay [5] of 75%.
In assay [6], `CCC(=O)N1CCN(c2ccc(-n3c(=O)ccc4cnc5ccc(-c6cnc7ccccc7c6)cc5c43)cc2C(F)(F)F)CC1` gave a % of control of 80%.
Regarding `CCn1c(-c2nc3cc(C(=O)N4CCCC(N)C4)ccc3n2C)cc2ccccc21` (configuration not stated), on Aurora kinase B, the pXC50 is below 4.5 M.
